Measurements from patent publication US4873225A, “1-n-(4-amino-3-fluoro-2-hydroxybutyryl)-kanamycins” (Zaidan Hojin Biseibutsu Kagaku Kenkyu Kai, priority 1987, dated 1989).
Values after ≈ are worked out from the molar mass of the structure shown. Where two headings read alike, the source gives them in different places.

How the values were obtained:
[1] = tested on: Staphylococcus aureus Ap 01; conditions: reported in earlier applications; cited from earlier work
[2] = tested on: Staphylococcus epidermidis 109; conditions: reported in earlier applications; cited from earlier work
Bacillus subtilis PCI219 = experiment: MIC, standard serial dilution method; assay type: cell-based; conditions: PCI219, pH 7, read-out: MIC
Description: (§1) Antibacterial activities of each of the abovementioned compounds of the general formula (I) according to this invention were determined by measuring their minimum growth inhibitory concentrations (MIC, mcg/ml) against various bacteria in accordance with a standard serial dilution method. The pH condition of the incubation medium where the MIC data were measured was set at pH 7, unless otherwise specifically indicated. For the sake of comparison, the antibacterial spectra of 1-N-{(S)-4-amino-2-hydroxybutyryl}kanamycin A (i.e., amikacin) and 1-N-{(S)-4-amino-2-hydroxybutyryl}-3,4-dideoxykanamycin B (i.e., habekacin) were also measured in the same manner.

[3] = tested on: Corynebacterium bovis 1810; experiment: MIC, standard serial dilution method; assay type: cell-based; conditions: Corynebacterium bovis, 1810, pH 7; read-out: MIC
Description: as §1

Escherichia coli JR 225 = experiment: MIC, standard serial dilution method; assay type: cell-based; conditions: JR225, pH 7
Description: as §1

[4] = tested on: Escherichia coli K-12 LA 290 R55; experiment: MIC, standard serial dilution method; assay type: cell-based; conditions: K12LA290R55, pH 7
Description: as §1

[5] = tested on: Escherichia coli K-12 ML 1629; experiment: MIC, standard serial dilution method; assay type: cell-based; conditions: K12ML1629, pH 7, read-out: MIC
Description: as §1

Escherichia coli K-12 = experiment: MIC, standard serial dilution method; assay type: cell-based; conditions: K12, pH 7
Description: as §1

[6] = tested on: Klebsiella pneumoniae 22 #3038; experiment: MIC, standard serial dilution method; assay type: cell-based
Description: as §1

Mycobacterium 607 = experiment: MIC, standard serial dilution method; assay type: cell-based; conditions: Mycobacterium, 607, pH 7; read-out: MIC
Description: as §1

Proteus rettgeri GN 311 = experiment: MIC, standard serial dilution method; assay type: cell-based; conditions: Providencia rettgeri, GN311, pH 7; read-out: MIC
Description: as §1

Providencia sp. Pv 16 = experiment: MIC, standard serial dilution method; assay type: cell-based
Description: as §1

[7] = tested on: Pseudomonas aeruginosa A3; experiment: MIC, standard serial dilution method; assay type: cell-based; conditions: A3, pH 7, read-out: MIC
Description: as §1

[8] = tested on: Pseudomonas aeruginosa GN 315; experiment: MIC, standard serial dilution method; assay type: cell-based; conditions: GN315, pH 7
Description: as §1

Serratia marcescens = experiment: MIC, standard serial dilution method; assay type: cell-based
Description: as §1

[9] = tested on: Staphylococcus aureus 209P; experiment: MIC, standard serial dilution method; assay type: cell-based; conditions: pH 7, read-out: MIC
Description: as §1

[10] = tested on: Staphylococcus aureus Ap01; experiment: MIC, standard serial dilution method; assay type: cell-based; conditions: AP01, pH 7, read-out: MIC
Description: as §1

Escherichia coli K-12 R5 = experiment: MIC, standard serial dilution method; assay type: cell-based; conditions: K12R5, pH 7
Description: as §1
Infectious diseases by Escherichia coli K-12 R5 tend to increase in recent days. The compounds of this invention are therefore important for the therapeutic treatment of bacterial infections.

[11] = tested on: Escherichia coli JR66/W677; experiment: MIC, standard serial dilution method; assay type: cell-based; conditions: for MIC: Escherichia coli
Description: as §1
(§2) (a) The antibacterial activities of the compounds of this invention are not decreased practically even under pH conditions of pH […] as compared to their antibacterial activities under neutral conditions of pH 7.

[12] = tested on: Pseudomonas aeruginosa TI 13; experiment: MIC, standard serial dilution method; assay type: cell-based; conditions: for MIC: Pseudomonas aeruginosa, read-out: MIC
Description: as §1, §2

mice = experiment: Acute toxicity against mice; assay type: in vivo; conditions: orally administered, 150 mg/kg
[13] = tested on: gram-positive and gram-negative bacteria, including resistant strains; conditions: reported in earlier applications, cited from earlier work
[14] = tested on: gram-positive bacteria, gram-negative bacteria and various kanamycin-resistant strains of bacteria; experiment: Antibacterial activity in vitro, in words; assay type: cell-based; conditions: tested in vitro
Description: The present inventors have carried out an extensive investigation in an attempt to produce such novel kanamycin derivatives which are capable of fulfilling such demands. […] The present invention has been completed on the basis of these above findings.
as §1

[15] = JR66/W677, measured at pH 6, read-out: MIC

SMILES	MIC (Bacillus subtilis PCI219)	MIC [3]	MIC (Escherichia coli JR 225)	MIC [4]	MIC [5]	MIC (Escherichia coli K-12)	MIC (Mycobacterium 607)	MIC (Proteus rettgeri GN 311)	MIC [7]	MIC [8]	MIC [9]	MIC [10]	MIC (Escherichia coli K-12 R5)	MIC ([11]; JR66/W677, pH 7, read-out: MIC)	MIC ([12]; TI13, pH 7)	MIC ([12]; TI13, measured at pH 6)	antibacterial activities (in words) [13]	other results
NC[C@@H]1C[C@H](F)[C@@H](N)[C@@H](O[C@H]2[C@H](O)[C@@H](O[C@H]3O[C@H](CO)[C@@H](O)[C@H](N)[C@H]3O)[C@H](N)C[C@@H]2N)O1 [3',4'-dideoxy-3'-fluorokanamycin B]	–	–	–	–	–	–	–	–	–	–	–	–	–	–	–	–	–	effective against resistant strain [1]: effective against such certain resistant strains of bacteria; effective against resistant strain [2]: effective against such certain resistant strains of bacteria
NC[C@@H](F)[C@H](O)C(=O)N[C@@H]1C[C@H](N)[C@@H](O[C@@H]2CC[C@H](O)[C@@H](CN)O2)[C@H](O)[C@H]1O[C@H]1O[C@H](CO)[C@@H](O)[C@H](N)[C@H]1O [Invention Compound No. 2, 1-N-{(2R,3R)-4-Amino-3-fluoro-2-hydroxybutyryl}-2',3'-dideoxykanamycin A]	0.78 µg/mL (≈ 1.36 µM)	0.78 µg/mL (≈ 1.36 µM)	0.39 µg/mL (≈ 0.682 µM)	0.78 µg/mL (≈ 1.36 µM)	0.78 µg/mL (≈ 1.36 µM)	0.39 µg/mL (≈ 0.682 µM)	1.56 µg/mL (≈ 2.73 µM)	0.78 µg/mL (≈ 1.36 µM)	0.78 µg/mL (≈ 1.36 µM)	12.5 µg/mL (≈ 21.9 µM)	0.2 µg/mL (≈ 0.35 µM)	1.56 µg/mL (≈ 2.73 µM)	6.25 µg/mL (≈ 10.9 µM)	1.56 µg/mL (≈ 2.73 µM)	3.12 µg/mL (≈ 5.46 µM)	3.12 µg/mL (≈ 5.46 µM)	–	MIC ([6]; pH 7, read-out: MIC): 3.12 µg/mL (≈ 5.46 µM); MIC (Providencia sp. Pv 16; SP.PV16, pH 7, read-out: MIC): 1.56 µg/mL (≈ 2.73 µM); MIC (Serratia marcescens; pH 7, read-out: MIC): 3.12 µg/mL (≈ 5.46 µM); MIC [11, 15]: 6.25 µg/mL (≈ 10.9 µM); survival of mice (mice): all mice surrived
NC[C@H]1O[C@H](O[C@H]2[C@H](O)[C@@H](O[C@H]3O[C@H](CO)[C@@H](O)[C@H](N)[C@H]3O)[C@H](N)C[C@@H]2N)[C@H](O)[C@@H](F)[C@@H]1O [3'-deoxy-3'-fluorokanamycin A]	–	–	–	–	–	–	–	–	–	–	–	–	–	–	–	–	effective also against kanamycin-resistant bacteria	–
NC[C@@H](F)[C@H](O)C(=O)N[C@@H]1C[C@H](N)[C@@H](O[C@H]2O[C@H](CN)[C@@H](O)[C@H](O)[C@H]2N)[C@H](F)[C@H]1O[C@H]1O[C@H](CO)[C@@H](O)[C@H](N)[C@H]1O [Invention Compound No. 8, 1-N-{(2R,3R)-4-Amino-3-fluoro-2-hydroxybutyryl}-5-deoxy-5-fluorokanamycin B]	0.39 µg/mL (≈ 0.645 µM)	0.39 µg/mL (≈ 0.645 µM)	0.2 µg/mL (≈ 0.331 µM)	0.39 µg/mL (≈ 0.645 µM)	0.78 µg/mL (≈ 1.29 µM)	< 0.2 µg/mL	12.5 µg/mL (≈ 20.7 µM)	0.2 µg/mL (≈ 0.331 µM)	0.39 µg/mL (≈ 0.645 µM)	6.25 µg/mL (≈ 10.3 µM)	0.39 µg/mL (≈ 0.645 µM)	6.25 µg/mL (≈ 10.3 µM)	3.12 µg/mL (≈ 5.16 µM)	0.78 µg/mL (≈ 1.29 µM)	1.56 µg/mL (≈ 2.58 µM)	6.25 µg/mL (≈ 10.3 µM)	–	MIC ([6]; pH 7, read-out: MIC): 3.12 µg/mL (≈ 5.16 µM); MIC (Providencia sp. Pv 16; SP.PV16, pH 7, read-out: MIC): 0.78 µg/mL (≈ 1.29 µM); MIC (Serratia marcescens; pH 7, read-out: MIC): 1.56 µg/mL (≈ 2.58 µM); MIC [11, 15]: 3.12 µg/mL (≈ 5.16 µM)
NC[C@@H](F)[C@H](O)C(=O)N[C@@H]1C[C@H](N)[C@@H](O[C@H]2O[C@H](CN)[C@@H](O)[C@H](O)[C@H]2O)[C@H](O)[C@H]1O[C@H]1O[C@H](CO)[C@@H](O)[C@H](N)[C@H]1O [Invention Compound Nos. 1]	–	–	–	–	–	–	–	–	–	–	–	–	–	–	–	–	–	survival of mice (mice): all mice surrived
NCC[C@H](O)C(=O)N[C@@H]1C[C@H](N)[C@@H](O[C@H]2O[C@H](CN)CC[C@H]2N)[C@H](O)[C@H]1O[C@H]1O[C@H](CO)[C@@H](O)[C@H](N)[C@H]1O [Habekacin, 1-N-{(S)-4-amino-2-hydroxybutyryl}-3,4-dideoxykanamycin B, reference compound]	< 0.2 µg/mL	0.39 µg/mL (≈ 0.706 µM)	0.78 µg/mL (≈ 1.41 µM)	0.78 µg/mL (≈ 1.41 µM)	0.78 µg/mL (≈ 1.41 µM)	0.39 µg/mL (≈ 0.706 µM)	0.39 µg/mL (≈ 0.706 µM)	0.78 µg/mL (≈ 1.41 µM)	< 0.2 µg/mL	3.12 µg/mL (≈ 5.65 µM)	< 0.2 µg/mL	0.39 µg/mL (≈ 0.706 µM)	25 µg/mL (≈ 45.2 µM)	0.78 µg/mL (≈ 1.41 µM)	0.78 µg/mL (≈ 1.41 µM)	25 µg/mL (≈ 45.2 µM)	–	MIC ([6]; pH 7): 1.56 µg/mL (≈ 2.82 µM); MIC (Providencia sp. Pv 16; SP.PV16, pH 7): 1.56 µg/mL (≈ 2.82 µM); MIC (Serratia marcescens; pH 7): 12.5 µg/mL (≈ 22.6 µM); MIC ([11]; JR66/W677, pH 6): 6.25 µg/mL (≈ 11.3 µM); antibacterial activity (MIC) at pH 6 as compared to pH 7 ([11]; pH 6 vs pH 7): reduced considerably at pH 6; antibacterial activity (MIC) at pH 6 as compared to pH 7 ([12]; pH 6 vs pH 7): reduced considerably at pH 6
NC[C@H](F)[C@H](O)C(=O)N[C@@H]1C[C@H](N)[C@@H](O[C@H]2O[C@H](CN)[C@@H](O)[C@H](O)[C@H]2N)[C@H](O)[C@H]1O[C@H]1O[C@H](CO)[C@@H](O)[C@H](N)[C@H]1O [1-N-{(2R,3S)-4-amino-3-fluoro-2-hydroxybutyryl}kanamycin B]	–	–	–	–	–	–	–	–	–	–	–	–	–	–	–	–	–	enhancement in antibacterial activities [14]: did not show any enhancement in antibacterial activities
NC[C@H]1O[C@H](O[C@H]2[C@H](F)[C@@H](O[C@H]3O[C@H](CO)[C@@H](O)[C@H](N)[C@H]3O)[C@H](N)C[C@@H]2N)[C@H](N)[C@@H](O)[C@@H]1O [5-deoxy-5-fluorokanamycin B]	–	–	–	–	–	–	–	–	–	–	–	–	–	–	–	–	–	antibacterial activities relative to kanamycin B ([13]; over kanamycin B): enhanced or improved advantageously over kanamycin B
NC[C@H]1O[C@H](O[C@H]2[C@H](O)[C@@H](O[C@H]3O[C@H](CO)[C@@H](O)[C@H](N)[C@H]3O)[C@H](N)C[C@@H]2N)[C@H](F)C[C@@H]1O [2',3'-dideoxy-2'-fluorokanamycin A]	–	–	–	–	–	–	–	–	–	–	–	–	–	–	–	–	antibacterial activities against gram-positive and gram-negative bacteria, including certain resistant strains of bacteria	–
NC[C@H]1O[C@H](O[C@H]2[C@H](O)[C@@H](O[C@H]3O[C@H](CO)[C@@H](O)[C@H](N)[C@H]3O)[C@H](N)C[C@@H]2N)[C@H](N)[C@@H](F)[C@@H]1O [3'-deoxy-3'-fluorokanamycin B]	–	–	–	–	–	–	–	–	–	–	–	–	–	–	–	–	antibacterial activities against various gram-positive and gram-negative bacteria, including resistant strains	–
